From ChEMBL document CHEMBL1201862, “PubChem BioAssay data set” (2004)
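In this assay, cells in 96-well plates receive the compound at five concentrations for 48 hours. Endpoints are linearly interpolated between the surrounding concentrations. GI50: concentration for 50% inhibition of growth.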 Activity calls are given as the source filed them. No stated cut-off is given here; in the data, active = GI50 up to about 1.1 µM and inactive = higher.

What was measured:
Experiment in all cases: inhibition of tumour cell growth, NCI panel, 48 h
SF-539 = tested on: SF-539
SN12C = tested on: SN12C
OVCAR-5 = tested on: OVCAR-5
HL-60 = tested on: HL-60
K562 = tested on: K562
SR = tested on: SR
SNB-19 = tested on: SNB-19
NCI-H226 = tested on: NCI-H226
SF-295 = tested on: SF-295
OVCAR-8 = tested on: OVCAR-8
RPMI-8226 = tested on: RPMI-8226
EKVX = tested on: EKVX
UACC-257 = tested on: UACC-257
OVCAR-4 = tested on: OVCAR-4
SK-MEL-5 = tested on: SK-MEL-5
MDA-N = tested on: MDA-N
OVCAR-3 = tested on: OVCAR-3
COLO 205 = tested on: COLO 205
NCI/ADR-RES = tested on: NCI/ADR-RES
TK-10 = tested on: TK-10
MDA-MB-435 = tested on: MDA-MB-435
SK-OV-3 = tested on: SK-OV-3
LOX IMVI = tested on: LOX IMVI
MOLT-4 = tested on: MOLT-4
Malme-3M = tested on: Malme-3M
CCRF-CEM = tested on: CCRF-CEM
DU-145 = tested on: DU-145
UACC-62 = tested on: UACC-62
A498 = tested on: A498
KM12 = tested on: KM12
A549 = tested on: A549
SNB-75 = tested on: SNB-75
RXF 393 = tested on: RXF 393
SF-268 = tested on: SF-268
SK-MEL-28 = tested on: SK-MEL-28
PC-3 = tested on: PC-3
SW-620 = tested on: SW-620
ACHN = tested on: ACHN
HOP-92 = tested on: HOP-92
T47D = tested on: T47D
MDA-MB-231 = tested on: MDA-MB-231
IGROV-1 = tested on: IGROV-1
UO-31 = tested on: UO-31
NCI-H460 = tested on: NCI-H460
CAKI-1 = tested on: CAKI-1
HCT-116 = tested on: HCT-116
MCF7 = tested on: MCF7
M14 = tested on: M14
786-0 = tested on: 786-0
NCI-H23 = tested on: NCI-H23
HT-29 = tested on: HT-29
Hs-578T = tested on: Hs-578T
HOP-62 = tested on: HOP-62
HCT-15 = tested on: HCT-15
U-251 = tested on: U-251
SK-MEL-2 = tested on: SK-MEL-2
HCC 2998 = tested on: HCC 2998
NCI-H522 = tested on: NCI-H522

Cc1ccc(S(=O)(=O)N/N=C2\CC(C)OC3=C2CCCCCC3)cc1 (stereo not given)
GI50 (SF-539): 20.5 µM (inactive) | GI50 (SN12C): 19.3 µM (inactive) | GI50 (OVCAR-5): 19.5 µM (inactive) | GI50 (HL-60): 23 µM (inactive) | GI50 (K562): 21.5 µM (inactive) | GI50 (SR): 17 µM (inactive) | GI50 (SNB-19): 22.2 µM (inactive) | GI50 (NCI-H226): 21.6 µM (inactive) | GI50 (SF-295): 15.8 µM (inactive) | GI50 (OVCAR-8): 21.2 µM (inactive) | GI50 (RPMI-8226): 21.9 µM (inactive) | GI50 (EKVX): 15.2 µM (inactive) | GI50 (UACC-257): 18.7 µM (inactive) | GI50 (OVCAR-4): 19.8 µM (inactive) | GI50 (SK-MEL-5): 16.9 µM (inactive) | GI50 (MDA-N): > 100 µM (inactive) | GI50 (OVCAR-3): 19.7 µM (inactive) | GI50 (COLO 205): 20.9 µM (inactive) | GI50 (NCI/ADR-RES): 20.5 µM (inactive) | GI50 (TK-10): 20.5 µM (inactive) | GI50 (MDA-MB-435): 18.5 µM (inactive) | GI50 (SK-OV-3): 26.1 µM (inactive) | GI50 (LOX IMVI): 18.7 µM (inactive) | GI50 (MOLT-4): 14.6 µM (inactive) | GI50 (Malme-3M): 21.7 µM (inactive) | GI50 (CCRF-CEM): 24.7 µM (inactive) | GI50 (DU-145): 19.4 µM (inactive) | GI50 (UACC-62): 14.5 µM (inactive) | GI50 (A498): 15.5 µM (inactive) | GI50 (KM12): 19.7 µM (inactive) | GI50 (A549): 16.7 µM (inactive) | GI50 (SNB-75): 24.2 µM (inactive) | GI50 (RXF 393): 17.6 µM (inactive) | GI50 (SF-268): 19.9 µM (inactive) | GI50 (SK-MEL-28): 22.1 µM (inactive) | GI50 (PC-3): 19.2 µM (inactive) | GI50 (SW-620): 20.5 µM (inactive) | GI50 (ACHN): 18.5 µM (inactive) | GI50 (HOP-92): 19.6 µM (inactive) | GI50 (T47D): 76.6 µM (inactive) | GI50 (MDA-MB-231): 19.1 µM (inactive) | GI50 (IGROV-1): 19.1 µM (inactive) | GI50 (UO-31): 17.4 µM (inactive) | GI50 (NCI-H460): > 100 µM (inactive) | GI50 (CAKI-1): 25.9 µM (inactive) | GI50 (HCT-116): 16.5 µM (inactive) | GI50 (MCF7): 19 µM (inactive) | GI50 (M14): 20.3 µM (inactive) | GI50 (786-0): 17.1 µM (inactive) | GI50 (NCI-H23): 20.5 µM (inactive) | GI50 (HT-29): 17.5 µM (inactive) | GI50 (Hs-578T): 21.2 µM (inactive) | GI50 (HOP-62): 18.5 µM (inactive)

COc1cccc(N/C(C)=C2/CCOC2=O)c1
GI50 (SF-539): > 10 µM (inactive) | GI50 (SN12C): > 10 µM (inactive) | GI50 (OVCAR-5): > 10 µM (inactive) | GI50 (HL-60): > 10 µM (inactive) | GI50 (HCT-15): 5.08 µM | GI50 (SR): > 10 µM (inactive) | GI50 (SNB-19): > 10 µM (inactive) | GI50 (NCI-H226): > 10 µM (inactive) | GI50 (SF-295): > 10 µM (inactive) | GI50 (OVCAR-8): > 10 µM (inactive) | GI50 (RPMI-8226): > 10 µM (inactive) | GI50 (EKVX): > 10 µM (inactive) | GI50 (OVCAR-4): > 10 µM (inactive) | GI50 (SK-MEL-5): > 10 µM (inactive) | GI50 (MDA-N): > 10 µM (inactive) | GI50 (OVCAR-3): > 10 µM (inactive) | GI50 (COLO 205): > 10 µM (inactive) | GI50 (NCI/ADR-RES): > 10 µM (inactive) | GI50 (TK-10): > 10 µM (inactive) | GI50 (MDA-MB-435): > 10 µM (inactive) | GI50 (SK-OV-3): > 10 µM (inactive) | GI50 (LOX IMVI): > 10 µM (inactive) | GI50 (MOLT-4): > 10 µM (inactive) | GI50 (Malme-3M): > 10 µM (inactive) | GI50 (CCRF-CEM): > 10 µM (inactive) | GI50 (DU-145): > 10 µM (inactive) | GI50 (UACC-62): > 10 µM (inactive) | GI50 (A498): > 10 µM (inactive) | GI50 (KM12): > 10 µM (inactive) | GI50 (A549): > 10 µM (inactive) | GI50 (SNB-75): > 10 µM (inactive) | GI50 (RXF 393): > 10 µM (inactive) | GI50 (SF-268): > 10 µM (inactive) | GI50 (SK-MEL-28): > 10 µM (inactive) | GI50 (PC-3): > 10 µM (inactive) | GI50 (SW-620): > 10 µM (inactive) | GI50 (U-251): > 10 µM (inactive) | GI50 (ACHN): 5.33 µM (inactive) | GI50 (T47D): > 10 µM (inactive) | GI50 (SK-MEL-2): > 10 µM (inactive) | GI50 (HCC 2998): > 10 µM (inactive) | GI50 (MDA-MB-231): 6.56 µM (inactive) | GI50 (IGROV-1): > 10 µM (inactive) | GI50 (UO-31): 8.15 µM (inactive) | GI50 (NCI-H460): > 10 µM (inactive) | GI50 (CAKI-1): > 10 µM (inactive) | GI50 (HCT-116): > 10 µM (inactive) | GI50 (MCF7): > 10 µM (inactive) | GI50 (M14): > 10 µM (inactive) | GI50 (NCI-H23): > 10 µM (inactive) | GI50 (HT-29): > 10 µM (inactive) | GI50 (NCI-H522): > 10 µM (inactive) | GI50 (Hs-578T): > 10 µM (inactive) | GI50 (HOP-62): > 10 µM (inactive)

COC(=O)c1cncc2c1CC1C3(C(=O)OC)C=NC(C4C(CO)=CCC43)C21C (stereo not given)
GI50 (SF-539): > 100 µM (inactive) | GI50 (SN12C): > 100 µM (inactive) | GI50 (OVCAR-5): > 100 µM (inactive) | GI50 (HL-60): > 100 µM (inactive) | GI50 (HCT-15): > 100 µM | GI50 (SR): > 100 µM (inactive) | GI50 (SNB-19): > 100 µM (inactive) | GI50 (NCI-H226): > 100 µM (inactive) | GI50 (SF-295): > 100 µM (inactive) | GI50 (OVCAR-8): > 100 µM (inactive) | GI50 (EKVX): > 100 µM (inactive) | GI50 (UACC-257): > 100 µM (inactive) | GI50 (OVCAR-4): > 100 µM (inactive) | GI50 (SK-MEL-5): > 100 µM (inactive) | GI50 (MDA-N): > 100 µM (inactive) | GI50 (COLO 205): > 100 µM (inactive) | GI50 (NCI/ADR-RES): > 100 µM (inactive) | GI50 (TK-10): > 100 µM (inactive) | GI50 (MDA-MB-435): > 100 µM (inactive) | GI50 (LOX IMVI): > 100 µM (inactive) | GI50 (MOLT-4): > 100 µM (inactive) | GI50 (Malme-3M): > 100 µM (inactive) | GI50 (CCRF-CEM): > 100 µM (inactive) | GI50 (DU-145): > 100 µM (inactive) | GI50 (A498): > 100 µM (inactive) | GI50 (KM12): > 100 µM (inactive) | GI50 (A549): > 100 µM (inactive) | GI50 (SNB-75): 83.4 µM (inactive) | GI50 (RXF 393): > 100 µM (inactive) | GI50 (SF-268): > 100 µM (inactive) | GI50 (SK-MEL-28): > 100 µM (inactive) | GI50 (PC-3): > 100 µM (inactive) | GI50 (SW-620): > 100 µM (inactive) | GI50 (U-251): > 100 µM (inactive) | GI50 (ACHN): > 100 µM (inactive) | GI50 (HOP-92): > 100 µM (inactive) | GI50 (T47D): > 100 µM (inactive) | GI50 (SK-MEL-2): > 100 µM (inactive) | GI50 (HCC 2998): > 100 µM (inactive) | GI50 (MDA-MB-231): > 100 µM (inactive) | GI50 (IGROV-1): > 100 µM (inactive) | GI50 (UO-31): > 100 µM (inactive) | GI50 (NCI-H460): > 100 µM (inactive) | GI50 (CAKI-1): > 100 µM (inactive) | GI50 (HCT-116): > 100 µM (inactive) | GI50 (MCF7): > 100 µM (inactive) | GI50 (M14): > 100 µM (inactive) | GI50 (786-0): > 100 µM (inactive) | GI50 (NCI-H23): > 100 µM (inactive) | GI50 (HT-29): > 100 µM (inactive) | GI50 (NCI-H522): > 100 µM (inactive) | GI50 (Hs-578T): > 100 µM (inactive) | GI50 (HOP-62): > 100 µM (inactive)
